Patent US9365614B2, “IAP BIR domain binding compounds” (priority 2006, dated 2016)

test system: MDA-MB231 cells; experiment: Survival MTT assay, MDA-MB-231; type: cell-based; conditions: Homo sapiens, 72 h
Description: (§1) One day prior the treatment with compound, 2000 to 4000 cells per well were plated in a tissue culture treated 96 well format dish with 100 ul of media and incubated at 37° C., 5% CO2. On the day of compound treatment, compounds were diluted with cell culture media to a working stock concentration of 2×. 100 uL of diluted compound were then added to each well. The treated plate was incubated for 72 h at 37° C., 5% CO2. Upon incubation, the cell viability was assessed as followed 20 uL of MTT reagent at 5 mg/ml were added per well to cell plate. The plate was incubated for 2 h at 37° C. in presence of 5% CO2. The supernatant was then removed from the plate and 100 uL of isopropanol were added. The absorbance was measured in a TECAN spectrophotometer at 570 nm. The percentage of viability was expressed in percentage of the signal obtained with non treated cells.

Going from `CN[C@@H](C)C(=O)N[C@H](C(=O)N1C[C@@H](OCC#CC#CCO[C@H]2C[C@@H](C(=O)N[C@@H]3CCCc4ccccc43)N(C(=O)[C@@H](NC(=O)[C@H](C)NC)C(C)(C)C)C2)C[C@H]1C(=O)N[C@@H]1CCCc2ccccc21)C(C)(C)C` [Compound 1] to `CC(C)(C)[C@H](NC(=O)[C@@H](N)CO)C(=O)N1C[C@@H](OCC#CC#CCO[C@H]2C[C@@H](C(=O)N[C@@H]3CCCc4ccccc43)N(C(=O)[C@@H](NC(=O)[C@@H](N)CO)C(C)(C)C)C2)C[C@H]1C(=O)N[C@@H]1CCCc2ccccc21` [Compound 5], the EC50 rises from under 50 nM to over 1000 nM.

For `CN[C@@H](C)C(=O)N[C@H](C(=O)C1C[C@@H](NC(=O)CCCCCCCCC(=O)N[C@H]2C[C@@H](C(=O)N[C@@H]3CCCc4ccccc43)N(C(=O)[C@@H](NC(=O)[C@H](C)NC)C(C)(C)C)C2)C[C@H]1C(=O)N[C@@H]1CCCc2ccccc21)C(C)(C)C` (stereo partly shown) [Compound 2], the EC50 was under 50 nM.

test system: SKOV-3 cells; experiment: Survival MTT assay, SKOV-3; type: cell-based; conditions: Homo sapiens, SK-OV-3, 72 h, read-out: SKOV-3 EC50
Description: as §1

`CN[C@@H](C)C(=O)N[C@H](C(=O)N1C[C@@H](OCC#CC#CCO[C@H]2C[C@@H](C(=O)N[C@@H]3CCCc4ccccc43)N(C(=O)[C@@H](NC(=O)[C@H](C)NC)C(C)(C)C)C2)C[C@H]1C(=O)N[C@@H]1CCCc2ccccc21)C(C)(C)C` [Compound 1] and `CN[C@@H](C)C(=O)N[C@H](C(=O)N1C[C@@H](NC(=O)c2cncc(C(=O)N[C@H]3C[C@@H](C(=O)N[C@@H]4CCCc5ccccc54)N(C(=O)[C@@H](NC(=O)[C@H](C)NC)C(C)(C)C)C3)c2)C[C@H]1C(=O)N[C@@H]1CCCc2ccccc21)C(C)(C)C` [Compound 41] cannot be ordered by EC50: under 50 nM for the first, under 50 nM for the second.

`CN[C@@H](C)C(=O)N[C@H](C(=O)C1C[C@@H](NC(=O)CCCCCCCCC(=O)N[C@H]2C[C@@H](C(=O)N[C@@H]3CCCc4ccccc43)N(C(=O)[C@@H](NC(=O)[C@H](C)NC)C(C)(C)C)C2)C[C@H]1C(=O)N[C@@H]1CCCc2ccccc21)C(C)(C)C` (stereo partly shown) [Compound 2] and `CN[C@@H](C)C(=O)N[C@H](C(=O)N1C[C@@H](NC(=O)C2CCC(C(=O)N[C@H]3C[C@@H](C(=O)N[C@@H]4CCCc5ccccc54)N(C(=O)[C@@H](NC(=O)[C@H](C)NC)C(C)(C)C)C3)CC2)C[C@H]1C(=O)N[C@@H]1CCCc2ccccc21)C(C)(C)C` (stereo partly shown) [Compound 52] cannot be ordered by EC50: under 50 nM for the first, under 50 nM for the second.

`CN[C@@H](C)C(=O)N[C@H](C(=O)N1C[C@@H](NC(=O)c2cccc(C(=O)N[C@H]3C[C@@H](C(=O)N[C@@H]4CCCc5ccccc54)N(C(=O)[C@@H](NC(=O)[C@H](C)NC)C(C)(C)C)C3)n2)C[C@H]1C(=O)N[C@@H]1CCCc2ccccc21)C(C)(C)C` [Compound 43] and `CN[C@@H](C)C(=O)N[C@H](C(=O)N1C[C@@H](NC(=O)c2ccc(C(=O)N[C@H]3C[C@@H](C(=O)N[C@@H]4CCCc5ccccc54)N(C(=O)[C@@H](NC(=O)[C@H](C)NC)C(C)(C)C)C3)cc2)C[C@H]1C(=O)N[C@@H]1CCCc2ccccc21)C(C)(C)C` [Compound 55] cannot be ordered by EC50: under 250 nM for the first, under 50 nM for the second.

`CN[C@@H](C)C(=O)N[C@H](C(=O)N1C[C@@H](NC(=O)Nc2ccc(NC(=O)N[C@H]3C[C@@H](C(=O)N[C@@H]4CCCc5ccccc54)N(C(=O)[C@@H](NC(=O)[C@H](C)NC)C(C)(C)C)C3)cc2)C[C@H]1C(=O)N[C@@H]1CCCc2ccccc21)C(C)(C)C` [Compound 44] and `CN[C@@H](C)C(=O)N[C@H](C(=O)N1C[C@@H](CC(=O)c2ccc3ccc(C(=O)N[C@H]4C[C@@H](C(=O)N[C@@H]5CCCc6ccccc65)N(C(=O)[C@@H](NC(=O)[C@H](C)NC)C(C)(C)C)C4)cc3c2)C[C@H]1C(=O)N[C@@H]1CCCc2ccccc21)C(C)(C)C` [Compound 57] cannot be ordered by EC50: under 50 nM for the first, under 50 nM for the second.

`CN[C@@H](C)C(=O)N[C@H](C(=O)N1C[C@@H](NC(=O)c2ccc(C(=O)N[C@H]3C[C@@H](C(=O)NCc4ccccc4)N(C(=O)[C@@H](NC(=O)[C@H](C)NC)C(C)(C)C)C3)cc2)C[C@H]1C(=O)NCc1ccccc1)C(C)(C)C` [Compound 46] and `CN[C@@H](C)C(=O)N[C@H](C(=O)N1C[C@@H](NC(=O)c2ccc(C(=O)N[C@H]3C[C@@H](C(=O)NCc4cccc(-c5ccccc5)c4)N(C(=O)[C@@H](NC(=O)[C@H](C)NC)C(C)(C)C)C3)cc2)C[C@H]1C(=O)NCc1cccc(-c2ccccc2)c1)C(C)(C)C` [Compound 48] cannot be ordered by EC50: under 250 nM for the first, under 250 nM for the second.

`CN[C@@H](C)C(=O)N[C@H](C(=O)N1C[C@@H](NC(=O)c2ccc(C(=O)N[C@H]3C[C@@H](C(=O)NC4c5ccccc5-c5ccccc54)N(C(=O)[C@@H](NC(=O)[C@H](C)NC)C(C)(C)C)C3)cc2)C[C@H]1C(=O)NC1c2ccccc2-c2ccccc21)C(C)(C)C` [Compound 47] and `CN[C@@H](C)C(=O)N[C@H](C(=O)N1C[C@@H](NC(=O)c2ccc(C(=O)N[C@H]3C[C@@H](C(=O)NCc4ccccc4-c4ccccc4)N(C(=O)[C@@H](NC(=O)[C@H](C)NC)C(C)(C)C)C3)cc2)C[C@H]1C(=O)NCc1ccccc1-c1ccccc1)C(C)(C)C` [Compound 60] cannot be ordered by EC50: under 50 nM for the first, under 50 nM for the second.

`CN[C@@H](C)C(=O)N[C@H](C(=O)N1C[C@@H](NC(=O)c2ccc(C(=O)N[C@H]3C[C@@H](C(=O)N[C@H](C)c4ccccc4)N(C(=O)[C@@H](NC(=O)[C@H](C)NC)C(C)(C)C)C3)cc2)C[C@H]1C(=O)N[C@H](C)c1ccccc1)C(C)(C)C` [Compound 49] and `CN[C@@H](C)C(=O)N[C@H](C(=O)N1C[C@@H](NC(=O)c2ccc(C(=O)N[C@H]3C[C@@H](C(=O)N[C@@H](C)c4ccccc4)N(C(=O)[C@@H](NC(=O)[C@H](C)NC)C(C)(C)C)C3)cc2)C[C@H]1C(=O)N[C@@H](C)c1ccccc1)C(C)(C)C` [Compound 50] cannot be ordered by EC50: under 50 nM for the first, under 250 nM for the second.

Compared with `CN[C@@H](C)C(=O)N[C@H](C(=O)N1C[C@@H](NC(=O)c2ccc(C(=O)N[C@H]3C[C@@H](C(=O)NC(c4ccc(OC)cc4)c4ccc(OC)cc4)N(C(=O)[C@@H](NC(=O)[C@H](C)NC)C(C)(C)C)C3)cc2)C[C@H]1C(=O)NC(c1ccc(OC)cc1)c1ccc(OC)cc1)C(C)(C)C` [Compound 51], `CN[C@@H](C)C(=O)N[C@H](C(=O)N1C[C@@H](NC(=O)c2ccc(C(=O)N[C@H]3C[C@@H](C(=O)N[C@@H](CO)c4ccccc4)N(C(=O)[C@@H](NC(=O)[C@H](C)NC)C(C)(C)C)C3)cc2)C[C@H]1C(=O)N[C@@H](CO)c1ccccc1)C(C)(C)C` [Compound 54] is higher in EC50: under 250 nM for the first, over 1000 nM for the second.

First: CC[C@H](N)C(=O)N[C@H](C(=O)N1C[C@@H](NC(=O)c2ccc(C(=O)N[C@H]3C[C@@H](C(=O)N[C@@H]4CCCc5ccccc54)N(C(=O)[C@@H](NC(=O)[C@@H](N)CC)C(C)(C)C)C3)cc2)C[C@H]1C(=O)N[C@@H]1CCCc2ccccc21)C(C)(C)C [Compound 53]
Second: CN[C@@H](C)C(=O)N[C@H](C(=O)N1C[C@@H](NC(=O)c2ccc(C(=O)N[C@H]3C[C@@H](C(=O)NC4Cc5ccccc5C4)N(C(=O)[C@@H](NC(=O)[C@H](C)NC)C(C)(C)C)C3)cc2)C[C@H]1C(=O)NC1Cc2ccccc2C1)C(C)(C)C [Compound 61]
The EC50 of the first is higher: over 1000 nM for the first, under 50 nM for the second. The second is the more potent here.

`CN[C@@H](C)C(=O)N[C@H](C(=O)N1C[C@@H](NS(=O)(=O)c2ccc3cc(S(=O)(=O)N[C@H]4C[C@@H](C(=O)N[C@@H]5CCCc6ccccc65)N(C(=O)[C@@H](NC(=O)[C@H](C)NC)C(C)(C)C)C4)ccc3c2)C[C@H]1C(=O)N[C@@H]1CCCc2ccccc21)C(C)(C)C` [Compound 56] and `CN[C@@H](C)C(=O)N[C@H](C(=O)N1C[C@@H](NS(=O)(=O)c2ccc3ccc(S(=O)(=O)N[C@H]4C[C@@H](C(=O)N[C@@H]5CCCc6ccccc65)N(C(=O)[C@@H](NC(=O)[C@H](C)NC)C(C)(C)C)C4)cc3c2)C[C@H]1C(=O)N[C@@H]1CCCc2ccccc21)C(C)(C)C` [Compound 58] cannot be ordered by EC50: under 50 nM for the first, under 250 nM for the second.

`CN[C@@H](C)C(=O)N[C@H](C(=O)N1C[C@@H](NC(=O)c2ccc(C(=O)N[C@H]3C[C@@H](C(=O)N[C@H](CO)c4ccccc4)N(C(=O)[C@@H](NC(=O)[C@H](C)NC)C(C)(C)C)C3)cc2)C[C@H]1C(=O)N[C@H](CO)c1ccccc1)C(C)(C)C` [Compound 59] and `CN[C@@H](C)C(=O)N[C@H](C(=O)N1C[C@@H](NC(=O)c2ccc(C(=O)N[C@H]3C[C@@H](C(=O)N[C@H](COCc4ccccc4)c4ccccc4)N(C(=O)[C@@H](NC(=O)[C@H](C)NC)C(C)(C)C)C3)cc2)C[C@H]1C(=O)N[C@H](COCc1ccccc1)c1ccccc1)C(C)(C)C` [Compound 64] cannot be ordered by EC50: under 250 nM for the first, under 50 nM for the second.
